Experimental data published in ChEMBL document CHEMBL3045176, “Occurrence of the antifeedant 14,15-dihydroajugapitin in the aerial parts of Ajuga iva from Algeria” (2000).

Legend:
Spodoptera littoralis = assay: Antifeedant activity against final stadium larvae of Spodoptera littoralis in compound-treated sucrose-treated glass-fibre disks assessed as amount of disks eaten at 100 ppm after 18 hr by binary choice feeding bioassay; type: functional
Spodoptera frugiperda = assay: Antifeedant activity against final stadium larvae of Spodoptera frugiperda (fall armyworm) in compound-treated sucrose-treated glass-fibre discs assessed as amount of discs eaten at 100 ppm after 18 hr by binary choice feeding bioassay; type: functional

Structure (SMILES) | AFI (Spodoptera littoralis) | AFI (Spodoptera frugiperda)
CC[C@H](C)C(=O)O[C@H]1[C@H](O)C[C@@H]2[C@@](C)([C@@H]3C[C@H]4CCO[C@H]4O3)[C@H](C)C[C@H](OC(C)=O)[C@@]2(COC(C)=O)[C@@]12CO2 [14,15-DIHYDROAJUGAPITIN] | 76% | 74%
CC[C@H](C)C(=O)O[C@H]1[C@@H](O)C[C@@H]2[C@@](C)([C@@H]3C[C@H]4CCO[C@H]4O3)[C@H](C)C[C@H](OC(C)=O)[C@@]2(COC(C)=O)[C@@]12CO2 [IVAIN IV] | 48% | 61%
